Reference: paper PMC10188607, “Quaternization of high molecular weight chitosan for increasing intestinal drug absorption using Caco-2 cells as an in vitro intestinal model” (Scientific Reports, 2023)
Blank lines part the entries; values can stand above or below the compound they belong to.

Tests used:
[1] = tested on: Caco-2 monolayers; test: TEER measurement of tight junction integrity in Caco-2 monolayers; assay type: cell-based, Human; details: inhibitor pre-incubated 30 min; for effect of inhibitor on 600-HPTChC65-mediated TEER reduction / tight junction opening: 0.005% (w/v) 600-HPTChC65, 2-h treatment; for effect of inhibitor on chitosan-mediated TEER reduction / tight junction opening: 0.005% (w/v) 600 kDa chitosan, 2-h treatment
Method: Human colon adenocarcinoma Caco-2 cell line was obtained from the American Type Culture Collection (Manassas, VA, USA). The cells were maintained in complete medium (CM; Dulbeco's modified Eagle's medium supplemented with 10% (v/v) fetal bovine serum, 100 units/mL penicillin, 100 µg/mL streptomycin, 1% (v/v) non-essential amino acids and 2 mM L-glutamine) at 37 °C in a humidified atmosphere of 5% CO2. Cells were grown at a density of 6 × 10^4 and 1.5 × 10^5 cells/cm^2 on a transwell insert (0.4 µm pore size; Corning Life Sciences, Tewksbury, MA, USA) for 21 days and 14 days in paracellular and transcellular experiments, respectively. At the start of each experiment, the integrity of the Caco-2 monolayer was assessed by measurement of the transepithelial electrical resistance (TEER), using a chopstick-like electrode connected to a Millicell-ERS® (Millipore, Bedford, MA, USA). Cell monolayers with a TEER value of greater than 300 Ω cm^2 were used in each experiment.
The 21 day-aged Caco-2 monolayers were incubated with transport buffers, i.e., 10 mM MES-HBSS, pH 6.5 on the apical side (the donor compartment) and 25 mM HEPES-HBSS, pH 7.4 on the basolateral side (the receiver compartment) for 30 min at 37 °C. Subsequently, the test chitosan in 1% (w/v) acetic acid was added to the apical side and incubated at 37 °C on an orbital shaker for 4 h. To investigate the tight junction signaling pathway, the monolayers were incubated with either ML-7, RO-318220 or genistein for 30 min at 37 °C prior to addition of the test chitosan. The TEER values were monitored at the indicated time points during the treatment period.
For the measurement of tight junction recovery, each monolayer was incubated with the test chitosan for 1 h prior to replacement with CM for another 24 h in a CO2 incubator at 37 °C. The TEER value was measured at the indicated time points during the 24-h chitosan withdrawal period.

[2] = biological target: recombinant human P-gp membranes (Homo sapiens, UniProt P08183)
Method: Effect of 600-HPTChC65 on P-gp ATPase activity was determined in recombinant human P-gp membranes with the use of the P-gp-Glo™ assay (Promega, Madison, Wisconsin), according to the manufacturer’s instruction.

Sequence of recombinant human P-gp membranes (P08183 whole entry): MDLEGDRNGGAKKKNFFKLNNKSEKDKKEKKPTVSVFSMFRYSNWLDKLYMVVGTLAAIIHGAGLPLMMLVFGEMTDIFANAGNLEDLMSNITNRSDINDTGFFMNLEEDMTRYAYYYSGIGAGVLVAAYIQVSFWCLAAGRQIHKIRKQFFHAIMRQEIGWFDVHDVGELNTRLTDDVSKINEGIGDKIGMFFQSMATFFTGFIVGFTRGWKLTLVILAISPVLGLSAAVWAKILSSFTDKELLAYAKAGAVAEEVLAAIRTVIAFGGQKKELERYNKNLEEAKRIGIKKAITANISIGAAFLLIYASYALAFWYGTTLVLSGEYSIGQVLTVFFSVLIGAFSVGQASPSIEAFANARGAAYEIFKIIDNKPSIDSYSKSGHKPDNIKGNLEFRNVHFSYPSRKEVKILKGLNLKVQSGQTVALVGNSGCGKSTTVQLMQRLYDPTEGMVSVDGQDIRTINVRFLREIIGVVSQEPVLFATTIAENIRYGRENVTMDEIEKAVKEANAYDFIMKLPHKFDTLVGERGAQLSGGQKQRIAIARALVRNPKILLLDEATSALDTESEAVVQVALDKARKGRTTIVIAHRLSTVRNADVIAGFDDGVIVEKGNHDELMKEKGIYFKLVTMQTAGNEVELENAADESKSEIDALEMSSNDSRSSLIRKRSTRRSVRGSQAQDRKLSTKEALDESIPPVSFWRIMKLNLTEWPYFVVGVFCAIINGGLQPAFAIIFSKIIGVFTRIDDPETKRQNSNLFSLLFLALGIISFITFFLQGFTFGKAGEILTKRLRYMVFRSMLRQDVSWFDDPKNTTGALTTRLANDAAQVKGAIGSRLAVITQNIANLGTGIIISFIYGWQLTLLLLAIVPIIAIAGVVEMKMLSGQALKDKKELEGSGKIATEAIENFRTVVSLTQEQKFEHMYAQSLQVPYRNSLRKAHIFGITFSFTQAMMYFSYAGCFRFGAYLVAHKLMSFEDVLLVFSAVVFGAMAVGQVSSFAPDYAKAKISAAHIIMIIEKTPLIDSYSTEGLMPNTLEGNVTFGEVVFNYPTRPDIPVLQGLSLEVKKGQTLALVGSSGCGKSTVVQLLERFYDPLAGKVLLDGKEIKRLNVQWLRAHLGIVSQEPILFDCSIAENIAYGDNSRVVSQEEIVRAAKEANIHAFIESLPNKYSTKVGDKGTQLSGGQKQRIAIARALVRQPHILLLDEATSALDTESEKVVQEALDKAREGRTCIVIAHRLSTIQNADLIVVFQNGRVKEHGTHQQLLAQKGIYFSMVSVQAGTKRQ

Compound: O=S(=O)(c1cccc2c(I)cccc12)N1CCCNCC1 [ML-7]
effect of inhibitor on 600-HPTChC65-mediated TEER reduction / tight junction opening [1]: did not prevent | effect of inhibitor on chitosan-mediated TEER reduction / tight junction opening [1]: partially prevent

Compound: Cn1cc(C2=C(c3cn(CCCSC(=N)N)c4ccccc34)C(=O)NC2=O)c2ccccc21 [RO-318220]
effect of inhibitor on 600-HPTChC65-mediated TEER reduction / tight junction opening [1]: did not prevent | effect of inhibitor on chitosan-mediated TEER reduction / tight junction opening [1]: no significant effect

Compound: O=c1c(-c2ccc(O)cc2)coc2cc(O)cc(O)c12 [genistein]
effect of inhibitor on 600-HPTChC65-mediated TEER reduction / tight junction opening [1]: did not prevent | effect of inhibitor on chitosan-mediated TEER reduction / tight junction opening [1]: no significant effect

P-gp ATPase activity (change in luminescence signal) [2]: increased ATPase activity
Compound: N-(2-hydroxypropyl)-3-trimethylammonium chitosan chloride [600-HPTChC65]
